Key:
[1] = target: T1, succinate cytochrome c reductase (SDH+CIII) (Apis mellifera, UniProt A0A8U0WTA3+A0A8U0YBJ8+A0A8U1DE73); experiment: SCCR activity, honeybee crude mitochondria; format: biochemical
T1 sequence (A0A8U1DE73 27-278): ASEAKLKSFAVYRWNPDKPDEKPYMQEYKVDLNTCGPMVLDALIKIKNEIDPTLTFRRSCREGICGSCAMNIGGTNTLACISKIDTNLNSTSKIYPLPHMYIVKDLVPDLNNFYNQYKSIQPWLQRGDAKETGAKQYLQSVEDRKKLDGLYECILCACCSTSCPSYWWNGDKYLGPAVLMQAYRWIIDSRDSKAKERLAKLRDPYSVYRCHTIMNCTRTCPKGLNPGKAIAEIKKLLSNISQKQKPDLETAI
T1 sequence (A0A8U0YBJ8 36-174): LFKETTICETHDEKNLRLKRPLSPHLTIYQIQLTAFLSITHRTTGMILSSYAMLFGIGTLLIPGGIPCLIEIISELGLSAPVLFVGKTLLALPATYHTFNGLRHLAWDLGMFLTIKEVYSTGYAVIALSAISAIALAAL
T1 sequence (A0A8U0WTA3 79-201): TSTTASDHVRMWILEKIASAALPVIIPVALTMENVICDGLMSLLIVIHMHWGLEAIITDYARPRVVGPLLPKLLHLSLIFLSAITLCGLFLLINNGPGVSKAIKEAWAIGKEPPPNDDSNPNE
Experimental: A. mellifera individuals (n = 5) were a kind gift from Jacques Kemp (beekeeper; Saint-Rémy-lès-Chevreuse, Yvelines, France). Whole bodies of individuals frozen in dry ice, except heads, were homogenized using a 1 ml glass-glass Potter-Elvehjem homogenizer in an ice-cold medium consisting of 20 mM Tris (pH 7.2), 0.25 M sucrose, 40 mM KCl, 2 mM EGTA, and 1 mg/ml BSA. The homogenate was centrifuged at 1,500 g for 5 min. The mitochondria contained in the supernatant were spun down at 10,000 g for 10 min. The pellet of crude mitochondria was distributed as 20-μl aliquots and kept frozen at -80°C.
(§1) RC enzyme activities were spectrophotometrically measured using a pseudo-double-wavelength spectrophotometer (Cary 60, Agilent). Malonate-sensitive succinate quinone dichlorophenolindophenol (DCPIP) reductase (SQDR), as an indicator of the activity of the isolated SDH enzyme (isolated CII), and glycerol-3-phosphate quinone DCPIP reductase (GQDR), as a measure of the activity of the isolated glycerol-3-phosphate dehydrogenase (G3PDH), were assayed as previously described. […] With this aim, we measured the malonate-sensitive succinate cytochrome c reductase (SDH+CIII), glycerol-3-phosphate cytochrome c reductase (G3PDH+CIII) and antimycin-sensitive quinol cytochrome c reductase (CIII) as previously described.
(§2) The effects of eight different SDHIs (up to 500 μM; S2 Fig) were determined on four different biological materials. Because IC50 are known to be affected by the actual absolute activity of the tested enzyme, these IC50 were quantified using similar levels of SDH enzyme activity during the assay. IC50 values were determined using the AAT Bioquest IC50 calculator tool (https://www.aatbio.com/tools/ic50-calculator).

[2] = target: T2, glycerol-3-phosphate cytochrome c reductase (G3PDH+CIII) (Botrytis cinerea, UniProt Q18ND9); experiment: GCCR activity, Botrytis cinerea mitochondria; format: biochemical
T2 sequence (Q18ND9 1-391): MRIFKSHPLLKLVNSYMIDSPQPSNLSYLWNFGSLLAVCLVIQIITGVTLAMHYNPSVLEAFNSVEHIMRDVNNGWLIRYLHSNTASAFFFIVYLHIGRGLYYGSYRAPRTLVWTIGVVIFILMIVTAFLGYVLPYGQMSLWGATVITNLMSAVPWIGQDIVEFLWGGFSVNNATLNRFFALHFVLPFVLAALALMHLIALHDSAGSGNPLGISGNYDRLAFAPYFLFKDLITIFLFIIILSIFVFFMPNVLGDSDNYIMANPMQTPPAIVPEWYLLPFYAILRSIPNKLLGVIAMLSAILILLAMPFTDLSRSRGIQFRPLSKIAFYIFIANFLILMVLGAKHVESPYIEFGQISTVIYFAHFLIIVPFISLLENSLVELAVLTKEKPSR
Experimental: The mixed population of B. cinerea fungi used in this study was kindly provided by Dr. Joelle Dupont (Museum National d’Histoire Naturelle, Paris, France). Conidia from Botrytis cinerea were obtained from 15–30 d cultures grown on malt medium agar plates. Mycelial colonies were prepared by seeding conidia from 10 colonies in liquid medium (10 g of glucose, 2 g of KH2PO4, 0.5 g of MgSO47H2O, 1 g of (NH4)2SO4, 2 g of yeast extract and deionized water up to 1 l, pH 6.2). Incubation was performed at 23°C until hyphae totally covered the surface of the bottle. The hyphae (9-cm-diameter disks) were harvested, washed twice with refrigerated distilled water and finally with mitochondria extraction medium containing 20 mM Tris (pH 7.2), 0.25 M sucrose, 40 mM KCl, 2 mM EGTA, 1 mg/ml BSA, and no cysteine. The hyphae were suspended in 150 ml of extraction medium, cut in small pieces (1 cm^2) and then disrupted at high speed for 1×2 sec and at low speed for 2×3 sec using a MultiMoulinex mixer (Moulinex, France). The suspension of disrupted hyphae was then filtered through two layers of nylon cloth (clearance 150 μm). The cloth was washed with 50 ml of extraction medium. After low-speed centrifugation (700 g for 15 min), the mitochondria were collected at 10,000 g for 20 min. The pellet was suspended in 250 μl of extraction medium, aliquoted (± 30 μl) and kept frozen at -80°C.
as §1, §2

SMILES | IC50 [1] [µM] | IC50 [2] [µM]
Cc1nn(C)c(F)c1C(=O)Nc1ccccc1C(C)CC(C)C (centres unmarked) [Penflufen, penflufen] | 7.5 | 80
Cn1cc(C(=O)Nc2ccc(F)cc2-c2ccc(Cl)c(Cl)c2)c(C(F)F)n1 [Bixafen, bixafen] | 3.3 | 22.5
Cn1cc(C(=O)Nc2ccccc2-c2cc(F)c(F)c(F)c2)c(C(F)F)n1 [Fluxapyroxad, fluxapyroxad] | 11.7 | 60
CC(C)C1C2CCC1c1c(NC(=O)c3cn(C)nc3C(F)F)cccc12 (centres unmarked) [Isopyrazam, isopyrazam] | 5.1 | 27.9
